Assay results: ChEMBL document CHEMBL3875187, “Structure-activity relationship study of a small cyclic peptide H-c[Lys-Pro-Glu]-Arg-OH: a potent inhibitor of Vascular Endothelial Growth Factor interaction with Neuropilin-1” (Bioorg Med Chem, 2017)
pIC50: −log10 of the molar value. Positions of bridges follow the written chain, without caps; N, C: chain ends. Non-standard residues stand in square brackets, D forms with d. Residues, ends and D or L forms follow the SMILES beside them. Orn = NCCC[C@H](N)C(=O)O

Key:
[1] = molecular target: Neuropilin-1 (Rattus norvegicus) (UniProt Q9QWJ9); experiment: Inhibition of biotin-labelled VEGF165 binding to rat recombinant NRP-1/Fc chimeric protein at 1 uM incubated for overnight by competitive ELISA method relative to control
Neuropilin-1 = Neuropilin-1 (Rattus norvegicus, UniProt Q9QWJ9); experiment: Inhibition of biotin labelled VEGF165 binding to rat recombinant NRP-1/Fc chimeric protein incubated for overnight by competitive ELISA method; conditions: for pIC50: read-out: IC50
[2] = molecular target: Neuropilin-1 (Rattus norvegicus) (UniProt Q9QWJ9); experiment: Inhibition of biotin-labelled VEGF165 binding to rat recombinant NRP-1/Fc chimeric protein at 10 uM incubated for overnight by competitive ELISA method relative to control
[3] = molecular target: Neuropilin-1 (Rattus norvegicus) (UniProt Q9QWJ9); experiment: Inhibition of biotin-labelled VEGF165 binding to rat recombinant NRP-1/Fc chimeric protein at 3 uM incubated for overnight by competitive ELISA method relative to control
[4] = molecular target: Neuropilin-1 (Rattus norvegicus) (UniProt Q9QWJ9); experiment: Inhibition of biotin labelled VEGF165 binding to rat recombinant NRP-1/Fc chimeric protein at 0.3 uM incubated for overnight by competitive ELISA method relative to control
[5] = Cytotoxicity against HUVEC at 10 to 1000 uM measured after 24 to 96 hrs by MTS assay; assay type: toxicity, cell-based; conditions: human
[6] = Cytotoxicity against human MDA-MB-231 cells at 10 to 1000 uM measured after 24 to 96 hrs by MTS assay; assay type: toxicity, cell-based; conditions: mda-mb-231, 1000 µM

| SMILES | inhibition [1] [%] | pIC50 (Neuropilin-1) | inhibition [2] [%] | inhibition [3] [%] | inhibition [4] [%] | Activity [5] | Activity [6] | IC50 (Neuropilin-1; read-out: pIC50 (converted)) [nM] |
| --- | --- | --- | --- | --- | --- | --- | --- | --- |
| N=C(N)NCCC[C@H](NC(=O)[C@@H]1CCC(=O)NCCC[C@H](N)C(=O)N2CCC[C@H]2C(=O)N1)C(=O)O (H-[Orn]PER-OH; lactam 1-3) | 27.8 | < 5.00 | 46.6 | 35.4 | 14.6 |  |  |  |
| N=C(N)NCCC[C@H](NC(=O)[C@@H]1CCCCNC(=O)CC[C@H](N)C(=O)N2CCC[C@H]2C(=O)N1)C(=O)O (H-EPKR-OH; lactam 1-3) | 79 | 6.80 | 89 | 85.4 | 68.3 | Non-Toxic | Non-Toxic |  |
| N=C(N)NCCC[C@H](NC(=O)[C@@H]1CCC(=O)NCCCC[C@@H](N)C(=O)N2CCC[C@H]2C(=O)N1)C(=O)O (H-[dK]PER-OH; lactam 1-3) | 1.1 | < 5.00 | 4 | 2.3 |  |  |  |  |
| N=C(N)NCCC[C@H](NC(=O)[C@@H]1CC(=O)NCCCC[C@H](N)C(=O)N2CCC[C@H]2C(=O)N1)C(=O)O (H-KPDR-OH; lactam 1-3) | 11.8 | < 5.00 | 14.7 | 12.5 |  |  |  |  |
| N=C(N)NCCC[C@H](NC(=O)CC[C@@H]1NC(=O)[C@H]2CCCN2C(=O)[C@@H](N)CCCCNC(=O)CC[C@@H](C(=O)N[C@@H](CCCNC(=N)N)C(=O)O)NC(=O)[C@H]2CCCN2C(=O)[C@H](CCCCN)NC1=O)C(=O)O | 46.6 | 6.05 | 86.8 | 72.2 | 30.1 |  |  | 1000 |
